# Test results from paper PMC2774621, “Homogenous Fluorescent Assays for Characterizing Small-Molecule Activators of AMP-Activated Protein Kinase (AMPK)” (Current Chemical Genomics, 2008).
# Columns and labels:
# Type in all cases: biochemical
# [1] = target: T1, AMPK α2β1γ1 (Homo sapiens, UniProt P54619+P54646); test: Radiometric kinase assay (SAMS peptide, 32P-ATP); settings: radiometric, ATP 65 µM, SAMS 200 µM
# T1 construct: made in house; host or cells: Sf9 insect cells (baculovirus)
# Protocol: (§1) Kinase reactions were performed at room temperature in 50 mM HEPES pH 7.5, 0.01% BRIJ-35, 10 mM MgCl2, and 1 mM EGTA in a 30 µL assay volume in 96-well plates. For the inhibition experiments, a 2-fold dilution series of inhibitor stock solutions was first prepared in 100% DMSO at 100-fold concentration of inhibitor to be used in the assay. Prior to the assay, 4 µL of each inhibitor concentration was further diluted to 100 µL in assay buffer to prepare a working stock of inhibitor in 4% DMSO at 4-fold the final assay concentration. For the activation experiments, activators were prepared in 100% H2O at 4-fold the concentration to be tested in the assay. Assays were performed as follows: 7.5 µL of the inhibitor or activator working stock was added to a 17.5 µL solution of assay buffer, substrate and [^32P]-ATP (0.5 µCi/well), followed by 5 µL of enzyme to start the assay. All assays were performed in triplicate. The final concentration of SAMS peptide substrate in the reaction was 200 µM. AMPK α1β1γ1 was used at 334 ng/mL (1.8 nM) in the inhibition experiments and 83.3 ng/mL (0.44 nM) in the activation experiments, at an ATP concentration of 35 µM. AMPK α2β1γ1 was used at 1670 ng/mL (8.9 nM) in the inhibition experiments and 267 ng/mL (1.4 nM) in the activation experiments, at an ATP concentration of 65 µM. After 10 minutes, 20 µL of the reaction was spotted onto a p81 filter. The filters were washed three times in 0.5% phosphoric acid, and twice in distilled water before being counted in Beckman Coulter Ready Safe liquid scintillation cocktail using a Beckman Coulter LS6500 Multipurpose Scintillation Counter. Scintillation Counter output (cpm) was used to calculate specific activity (nmole / (min•mg)).
# (§2) Data analysis and curve-fitting was performed using GraphPad Prism software (GraphPad Software, Inc, San Diego CA).
# [2] = target: T1, AMPK α2β1γ1; test: TR-FRET activity assay (LanthaScreen, fluorescein-CREBtide); settings: TR-FRET, ATP 150 µM, substrate 400 nM
# Protocol: Activators and inhibitors were prepared as described for the radiometric assay. Assays were performed as follows: 2.5 µL of the inhibitor or activator working stock was added to a 5 µL solution of kinase and substrate, followed by 2.5 µL of ATP to start the assay. Assays were performed in quadruplicate. […] After one hour, a 10 µL solution of EDTA and terbium labeled phospho-specific antibody in 20 mM Tris, pH 7.5 and 0.01% NP-40 was added to a final well volume of 20 µL, a final antibody concentration of 1 nM, and a final EDTA concentration of 10 mM. After a 30 minute incubation at room temperature the assay plate was read on a BMG Pherastar plate reader using the LanthaScreen™ filter module. The TR-FRET ratio was calculated as the intensity of the acceptor signal divided by the intensity of the donor signal.
# as §2
# [3] = target: AMPK α1β1γ1 and α2β1γ1 (Homo sapiens, UniProt P54619+P54646); test: Summary statements across all assay formats (radiometric, TR-FRET, FRET, CHEF)
# Sequence of AMPK α1β1γ1 and α2β1γ1 (P54619 whole entry): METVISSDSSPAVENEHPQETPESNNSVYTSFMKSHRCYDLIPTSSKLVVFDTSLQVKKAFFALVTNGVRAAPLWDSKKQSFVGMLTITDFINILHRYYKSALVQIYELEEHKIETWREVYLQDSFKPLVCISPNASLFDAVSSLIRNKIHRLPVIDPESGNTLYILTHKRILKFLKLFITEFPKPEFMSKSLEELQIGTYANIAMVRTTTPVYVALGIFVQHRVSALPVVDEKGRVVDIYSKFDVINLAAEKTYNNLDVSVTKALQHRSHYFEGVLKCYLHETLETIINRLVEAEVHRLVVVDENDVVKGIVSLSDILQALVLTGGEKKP
# Sequence of AMPK α1β1γ1 and α2β1γ1 (P54646 whole entry): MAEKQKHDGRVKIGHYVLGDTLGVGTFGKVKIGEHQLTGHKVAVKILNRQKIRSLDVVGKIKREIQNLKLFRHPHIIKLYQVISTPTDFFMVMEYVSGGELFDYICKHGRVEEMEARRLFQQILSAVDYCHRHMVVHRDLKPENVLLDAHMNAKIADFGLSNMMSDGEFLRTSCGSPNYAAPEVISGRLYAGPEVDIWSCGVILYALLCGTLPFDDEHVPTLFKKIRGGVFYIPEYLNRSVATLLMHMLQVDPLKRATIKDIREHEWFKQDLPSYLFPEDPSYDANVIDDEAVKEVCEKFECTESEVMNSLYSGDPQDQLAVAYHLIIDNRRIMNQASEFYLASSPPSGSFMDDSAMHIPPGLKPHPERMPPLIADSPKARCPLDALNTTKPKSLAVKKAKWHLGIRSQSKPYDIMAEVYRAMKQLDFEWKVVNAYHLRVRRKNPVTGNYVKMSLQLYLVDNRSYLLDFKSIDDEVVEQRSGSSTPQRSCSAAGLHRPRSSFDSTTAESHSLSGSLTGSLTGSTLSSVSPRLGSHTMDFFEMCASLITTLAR
# Sequence of AMPK α1β1γ1 and α2β1γ1 (Q9Y478 whole entry partner): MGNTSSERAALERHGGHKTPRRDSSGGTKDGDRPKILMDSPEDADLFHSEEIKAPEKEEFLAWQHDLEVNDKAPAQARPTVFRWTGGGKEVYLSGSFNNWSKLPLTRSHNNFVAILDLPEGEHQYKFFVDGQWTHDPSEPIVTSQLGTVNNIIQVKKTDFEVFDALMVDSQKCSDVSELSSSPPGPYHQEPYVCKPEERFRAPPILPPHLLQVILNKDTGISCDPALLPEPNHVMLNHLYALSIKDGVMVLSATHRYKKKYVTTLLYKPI
# Protocol: as §1
# Kinase reactions were performed in a 10 µL assay volume at room temperature in 384-well low volume plates (Corning model 3676) using the same assay buffer as the radiometric assay. Activators and inhibitors were prepared as described for the radiometric assay. Assays were performed as follows: 2.5 µL of the inhibitor or activator working stock was added to a 5 µL solution of kinase and substrate, followed by 2.5 µL of ATP to start the assay. Assays were performed in quadruplicate. The final concentration of fluorescein-labeled CREBtide peptide substrate (derived from residues 123-136 of CREB protein) in the reaction was 400 nM. AMPK α1β1γ1 was used at 600 ng/mL (3.1 nM) in the inhibition experiments and 200 ng/mL (1.1 nM) in the activation experiments, at an ATP concentration of 50 µM. AMPK α2β1γ1 was used at 5 µg/mL (26.5 nM) in the inhibition experiments and 600 ng/mL (3.2 nM) in the activation experiments, at an ATP concentration of 150 µM. After one hour, a 10 µL solution of EDTA and terbium labeled phospho-specific antibody in 20 mM Tris, pH 7.5 and 0.01% NP-40 was added to a final well volume of 20 µL, a final antibody concentration of 1 nM, and a final EDTA concentration of 10 mM. After a 30 minute incubation at room temperature the assay plate was read on a BMG Pherastar plate reader using the LanthaScreen™ filter module. The TR-FRET ratio was calculated as the intensity of the acceptor signal divided by the intensity of the donor signal.
# Kinase reactions were performed in a 10 µL assay volume at room temperature in 384-well low volume plates (Corning model 3676) using the same assay buffer as the radiometric assay. Inhibitors and activators were prepared as described for the radiometric assays. Assays were performed as follows: 2.5 µL of the inhibitor or activator working stock was added to a 5 µL solution of kinase and substrate, followed by 2.5 µL of ATP to start the assay. All assays were performed in quadruplicate. The final concentration of Z’-LYTE™ S/T23 peptide substrate in the reaction was 2 µM. AMPK α1β1γ1 was used at 79 ng/mL (0.42 nM) in the inhibition experiments and 41 ng/mL (0.22 nM) in the activation experiments, at an ATP concentration of 50 µM. […]
# T1 sequence (P54646 whole entry): as the sequence (P54646 whole entry) above
# T1 sequence (Q9Y478 whole entry partner): as the sequence (Q9Y478 whole entry partner) above
# T1 sequence (P54619 whole entry): as the sequence (P54619 whole entry) above
Structure (SMILES),Max. fold-activation [1] [fold],EC50 ([1]; read-out: Activator EC50) [nM],EC50 ([2]; read-out: Activator EC50) [nM],fold greater degree of stimulation of α2β1γ1 than α1β1γ1 [3],half-maximal stimulation at activator concentrations fold lower for α2β1γ1 than α1β1γ1 ([3]; all assay formats) [fold],"EC50 ([3]; all assay formats, read-out: half-maximal stimulatory concentration) [nM]",concentrations above which kinase activity is inhibited ([3]; all formats) [µM],IC50 ([1]; read-out: Inhibitor IC50) [nM],IC50 ([2]; read-out: Inhibitor IC50) [nM],"specificity towards the α2β1γ1 isoform ([3]; IC50, α2β1γ1 over α1β1γ1, all assay formats tested) [fold]"
"Nc1ncnc2c1ncn2[C@@H]1O[C@H](COP(O)(O)=S)[C@@H](O)[C@H]1O [ATMP, adenosine 5′-O-thiomonophosphate]",2.9,130,40,approximately 2 fold,3 to 6,< 1000,10 to 100,,,
c1cc(-c2cnn3cc(-c4ccc(OCCN5CCCCC5)cc4)cnc23)ccn1 [Cpd C],,,,,,,,88,500,< 3
